# Results from patent US6479435B1, “Diaryl ethers and processes for their preparation and herbicidal and desiccant compositions containing them” (ISK Americas Incorporated, priority 1997, dated 2002).
# Key:
# Type in all cases: in vivo
# [1] = test system: ivyleaf morningglory (Ipomoea hederacea, IPOHE); experiment: Post-emerge greenhouse herbicide test, phytotoxicity rating; details: 14 days after application
# Summary of the method: (§1)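 Plants at the 2-3 leaf stage, sown 8-21 days earlier, were track-sprayed post-emergence with compound in acetone plus 0.25% v/v non-ionic surfactant at 63-1000 g ai/ha (187 l/ha). Damage was rated at 14 days on a 0-100 scale (0 none, 100 all plants dead), for both crop injury and weed control.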
# [2] = test system: green foxtail (Setaria viridis, SETVI); experiment: as above; details: 14 days after application
# Summary of the method: as §1
# [3] = test system: Johnsongrass (Sorghum halepense, SORHA); experiment: as above; details: 14 days after application
# Summary of the method: as §1
# [4] = test system: large crabgrass (Digitaria sanguinalis, DIGSA); experiment: as above; details: 14 days after application
# Summary of the method: as §1
# [5] = test system: barnyardgrass (Echinochloa crusgalli, ECHCG); experiment: as above; details: 14 days after application
# Summary of the method: as §1
# [6] = test system: sicklepod (Cassia obtusifolia, CASOB); experiment: as above; details: 14 days after application
# Summary of the method: as §1
# [7] = test system: redroot pigweed (Amaranthus retroflexus, AMARE); experiment: as above; details: 14 days after application
# Summary of the method: as §1
# [8] = test system: lambsquarters (Chenopodium album, CHEAL); experiment: as above; details: 14 days after application
# Summary of the method: as §1
# [9] = test system: velvetleaf (Abutilon theophrasti, ABUTH); experiment: as above; details: 14 days after application
# Summary of the method: as §1
# [10] = test system: ivyleaf morningglory (Ipomoea hederacea, IPOHE); experiment: Pre-emerge greenhouse herbicide test, phytotoxicity rating; details: 14 days after application, rating scale 0-100
# Summary of the method: (§2)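 Seeds sown in sandy loam one day before track-sprayer application of acetone solutions at 125–1000 g ai/ha (187 l/ha), then surface-watered to incorporate and bottom-watered. Injury scored visually at 14 days on a 0–100 scale (0 no damage, 100 complete death).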
# [11] = test system: common ragweed (Ambrosia artemisiifolia L., AMBEL); experiment: as above; details: 14 days after application, rating scale 0-100
# Summary of the method: as §2
# [12] = test system: green foxtail (Setaria viridis, SETVI); experiment: as above; details: 14 days after application, rating scale 0-100
# Summary of the method: as §2
# [13] = test system: Johnsongrass (Sorghum halepense, SORHA); experiment: as above; details: 14 days after application, rating scale 0-100
# Summary of the method: as §2
# [14] = test system: large crabgrass (Digitaria sanguinalis, DIGSA); experiment: as above; details: 14 days after application, rating scale 0-100
# Summary of the method: as §2
# [15] = test system: barnyardgrass (Echinochloa crusgalli, ECHCG); experiment: as above; details: 14 days after application, rating scale 0-100
# Summary of the method: as §2
# [16] = test system: sicklepod (Cassia obtusifolia, CASOB); experiment: as above; details: 14 days after application, rating scale 0-100
# Summary of the method: as §2
# [17] = test system: redroot pigweed (Amaranthus retroflexus, AMARE); experiment: as above; details: 14 days after application, rating scale 0-100
# Summary of the method: as §2
# [18] = test system: lambsquarters (Chenopodium album, CHEAL); experiment: as above; details: 14 days after application, rating scale 0-100
# Summary of the method: as §2
# [19] = test system: velvetleaf (Abutilon theophrasti, ABUTH); experiment: as above; details: 14 days after application, rating scale 0-100
# Summary of the method: as §2
# [20] = test system: common ragweed (Ambrosia artemisiifolia L., AMBEL); experiment: Post-emerge greenhouse herbicide test, phytotoxicity rating; details: 14 days after application
# From the text: A standard greenhouse herbicide activity screening system was used to evaluate the herbicidal efficacy and crop safety of these test compounds. Six broadleaf weed species including redroot pigweed (Amaranthus retroflexus, AMARE), velvetleaf (Abutilon theophrasti, ABUTH), sicklepod (Cassia obtusifolia, CASOB), ivyleaf morningglory (Ipomoea hederacea, IPOHE), lambsquarters (Chenopodium album, CHEAL) and common ragweed (Ambrosia artemisiifolia L., AMBEL) were used as test species. Four grass weed species including green foxtail (Setaria viridis, SETVI), barnyardgrass (Echinochloa crusgalli, ECHCG), Johnsongrass (Sorghum halepense, SORHA), and large crabgrass (Digitaria sanguinalis, DIGSA) were also used. In addition, three crop species, field corn (Zea mays L., var. Dekalb 535, CORN), soybean (Glycine max L., var. Pella 86, SOY), and upland rice (Oryza sp., var.Tebonnet, RICE) were included.
# All test compounds were dissolved in acetone and applied to the test units in a volume of 187 l/ha. […] Plants were arranged on a shelf so that the top of the canopy (post-emerge) or top of the soil surface (pre-emerge) was 40-45 cm below the nozzle. Pressurized air was used to force the test solution through the nozzle as it was mechanically advanced (via electrically driven chain drive) over the top of all test plants/pots. This application simulates a typical commercial field herbicide application.
# In the post-emerge test, a commercial non-ionic surfactant was also included (0.25% v/v) to enhance wetting of the leaf surfaces Qf target plants at rates ranging from 63 g ai/ha to 1000 g ai/ha. For post-emerge tests, seeds were planted 8-21 days prior to the test to allow emergence and good foliage development prior to application of the test substances. At the time of the post-emerge application, plants of all species were usually at the 2-3 leaf stage of development. Post-emerge test units were always bottom-watered.
# At 14 days after application of the test materials, phytotoxicity ratings were recorded. A rating scale of 0-100 was used as previously described in Research Methods in Weed Science, 2nd edition, B. Truelove, Ed., Southern Weed Science Society, Auburn University, Auburn, Ala., 1977. Briefly, “0” corresponds to no damage and “100” corresponds to complete death of all plants in the test unit. This scale was used both to determine efficacy against weed species and damage to crop species. Herbicide activity data for various compounds of this invention, which are shown by compound number in Tables 1-9, are shown in Tables 13 and 14.
smiles,measurement,setting,value
"COc1nc(OC)nc(Oc2cc(-c3nn(C)c(C(F)(F)F)c3Cl)c(F)cc2Cl)n1 [Compound 1-8, 4-chloro-3-(4-chloro-2-fluoro-5-(4,6-dimethoxy-2-triazinyloxy)phenyl)-1-methyl-5-trifluoromethyl-1H-pyrazole]",IPOHE phytotoxicity rating (0-100),[1]; 63 g al/ha,10
same,IPOHE phytotoxicity rating (0-100),[1]; 500 g al/ha,80
same,SETVI phytotoxicity rating (0-100),[2]; 63 g al/ha,50
same,SETVI phytotoxicity rating (0-100),[2]; 500 g al/ha,20
same,SORHA phytotoxicity rating (0-100),[3]; 63 g al/ha,0
same,SORHA phytotoxicity rating (0-100),[3]; 500 g al/ha,10
same,DIGSA phytotoxicity rating (0-100),[4]; 63 g al/ha,0
same,DIGSA phytotoxicity rating (0-100),[4]; 500 g al/ha,20
same,ECHCG phytotoxicity rating (0-100),[5]; 63 g al/ha,0
same,ECHCG phytotoxicity rating (0-100),[5]; 500 g al/ha,0
same,CASOB phytotoxicity rating (0-100),[6]; 63 g al/ha,0
same,CASOB phytotoxicity rating (0-100),[6]; 500 g al/ha,10
same,AMARE phytotoxicity rating (0-100),[7]; 63 g al/ha,20
same,AMARE phytotoxicity rating (0-100),[7]; 500 g al/ha,100
same,CHEAL phytotoxicity rating (0-100),[8]; 63 g al/ha,0
same,CHEAL phytotoxicity rating (0-100),[8]; 500 g al/ha,95
same,ABUTH phytotoxicity rating (0-100),[9]; 63 g al/ha,0
same,ABUTH phytotoxicity rating (0-100),[9]; 500 g al/ha,35
same,phytotoxicity rating IPOHE,[10]; 125 g ai/ha,0
same,phytotoxicity rating IPOHE,[10]; 500 g ai/ha,0
same,phytotoxicity rating AMBEL,[11]; 125 g ai/ha,0
same,phytotoxicity rating AMBEL,[11]; 500 g ai/ha,10
same,phytotoxicity rating SETVI,[12]; 125 g ai/ha,50
same,phytotoxicity rating SETVI,[12]; 500 g ai/ha,100
same,phytotoxicity rating SORHA,[13]; 125 g ai/ha,0
same,phytotoxicity rating SORHA,[13]; 500 g ai/ha,35
same,phytotoxicity rating DIGSA,[14]; 125 g ai/ha,20
same,phytotoxicity rating DIGSA,[14]; 500 g ai/ha,90
same,phytotoxicity rating ECHCG,[15]; 125 g ai/ha,0
same,phytotoxicity rating ECHCG,[15]; 500 g ai/ha,0
same,phytotoxicity rating CASOB,[16]; 125 g ai/ha,0
same,phytotoxicity rating CASOB,[16]; 500 g ai/ha,0
same,phytotoxicity rating AMARE,[17]; 125 g ai/ha,70
same,phytotoxicity rating AMARE,[17]; 500 g ai/ha,100
same,phytotoxicity rating CHEAL,[18]; 125 g ai/ha,0
same,phytotoxicity rating CHEAL,[18]; 500 g ai/ha,100
same,phytotoxicity rating ABUTH,[19]; 125 g ai/ha,0
same,phytotoxicity rating ABUTH,[19]; 500 g ai/ha,20
same,AMBEL phytotoxicity rating (0-100),[20]; 63 g al/ha,0
same,AMBEL phytotoxicity rating (0-100),[20]; 500 g al/ha,10
